Experimental data from patent US9518038B2, “Condensation product of theanine derivative and carboxylic acid coumarin derivative, its intermediate, preparation method and use thereof” (SHANDONG YINGDONG YINGHAO BIOTECHNOLOGY, INC., priority 2012, dated 2016).

Assays:
[1] = test system: human breast cancer cells MDA-MB231 xenograft; experiment: In-vivo growth of MDA-MB231 xenografts in nude mice; parameters: species or system BALB/c nude mice; details: Mus musculus, MDA-MB-231, ip, MB-231 xenograft, vs DMSO solvent control, read-out: Curative effect (inhibition rate %) of tumor weight; for inhibition in vivo at 60 mg/kg: 60 mg/kg intraperitoneal once a day; for inhibition in vivo at 90 mg/kg: 90 mg/kg intraperitoneal once a day
Protocol: (§1) RPMI1640 and DMEM culture solutions: Hyclone Company; inactivated fetal bovine serum: Hyclone Company, preserved at −20° C.; trypsin: Amersco Company; and 0.4% trypan blue: Sigma Company;
(§2) (3) Observation of growth of tumors in nude mice: the activities (including food intake, traits of urine and stool, mental state and the like) of the nude mice and the tumor growth time and growth situation of the transplanted tumors were observed every day, the body weight and the size of the tumors were measured once every 2-3 days. The long diameter a and the short diameter b (mm) of each tumor were measured by a vernier caliper to calculate the volume, wherein the volume V=π1/2·ab^2 (mm^3);
(§3) (4) sacrifice of animals: the mice were anesthetized and photoed after treatment experiments; the nude mice were sacrificed by breaking neck, the tumor tissues were stripped under sterile conditions and the weight of the tumors was weighed; and the effects of the drugs on pathology and toxicity of the various organs and tissues were detected.

[2] = test system: human liver cancer cells HepG2; experiment: MTT growth inhibition, HepG2 cells; type: cell-based; details: 72 h after treatment, read-out: Drug concentration (IC50) at which 50% cancer cells survived
Text: (§4) Cell lines and cell culture: human lung cancer cells A549 and H460, human breast cancer cells MCF-7 and MDA-MB-231, human gastric cancer cells BGC-823, human prostate cancer cells PC-3, human chronic leukemia cells K562, human lymphoma cells U937, human liver cancer cells SMMC7721 and HepG2, human colon cancer cells HT29, human pancreatic cancer cells PANC-1 and BxPC3, human cervical cancer Hela cell lines, human brain tumor cells Daoy, human neuroma cells D54 and human oral epidermoid cancer cells KBV200 line with strong drug resistance, mouse melanoma cells B16, and highly metastatic Lewis lung cancer cell lines were purchased from American Type Culture Collection of the U.S. These cells were cultured with DMEM and RPMI-1640 culture solutions separately.
(§5) The procedure was as follows:
(§6) (1) 0.25% trypsin was used to digest cancer cells in a logarithmic growth phase to prepare a single-cell suspension, the concentration of cells was adjusted to 5×10^4/mL, and the adjusted suspension was inoculated into a 96-well culture plate with 100 μl per well;
(§7) (2) The culture plate was transferred into a 37° C. incubator with a saturated humidity and 5% of CO2 and cultured for 24 h; the compounds and the intermediates thereof obtained in embodiments 1-7 and the compound as represented by formula (IIIa) or the positive control anti-cancer drug with the concentration of 1-1000 μM/L were added to enable the final concentration to be 0.1-1500 μM/L. Control wells (only added with 200 μl of cell suspension) and drug-free blank control wells (containing the solvent of 0.01% DMSO) were set, each group included 8 wells, and the plate was placed into the 37° C. incubator with saturated humidity and 5% of CO2 for culturing;
(§8) (3) The 96-well plate was taken out at 48 h and 72 h after dosing, the original culture medium was carefully removed by suction, 100 μl of serum-free DMEM culture medium and 10 μl of MTT (5 mg/mL) solution were added in each well. The plate was continuously cultured for another 4 h and then the culture was terminated;
(§9) (4) The supernatant in the wells was carefully removed by suction, each well was added with 150 μl of DMSO and shaked at room temperature for 10-15 min to fully dissolve crystals.
(§10) (5) Colorimetric analysis: the wavelength was selected as 570 nm, the light absorbance (A value) of each well was determined on the microplate reader and the results were recorded; the experiment was repeated for three times;
(§11) (6) the experimental results were calculated according to the following formula: relative survival rate=(A value of each experimental group/A value of cell control group)×100%
(§12) Calculation of median-effect concentration (IC50, namely the drug concentration at which the inhibition rate is 50%, also known as half inhibitory concentration):
(§13) IC50 of the detected component was calculated by using a regression equation.

[3] = test system: human chronic leukemia cells K562; experiment: MTT growth inhibition, K562 cells; type: cell-based; details: 72 h after treatment, read-out: Drug concentration (IC50) at which 50% cancer cells survived
Text: as §4, §5, §6, §7, §8, §9, §10, §11, §12, §13

[4] = test system: human pancreatic cancer cells BxPC3; experiment: MTT growth inhibition, BxPc3 cells; type: cell-based; details: Homo sapiens, BXPC-3, 72 h after treatment, read-out: Drug concentration (IC50) at which 50% cancer cells survived
Text: as §4, §5, §6, §7, §8, §9, §10, §11, §12, §13

[5] = test system: human breast cancer cells MCF-7 xenograft; experiment: In-vivo growth of MCF-7 xenografts in nude mice; parameters: species or system BALB/c nude mice; details: Mus musculus, MCF7, ip, vs DMSO solvent control, read-out: Curative effect (inhibition rate %) of tumor weight; for inhibition in vivo at 60 mg/kg: 60 mg/kg intraperitoneal once a day; for inhibition in vivo at 90 mg/kg: 90 mg/kg intraperitoneal once a day
Protocol: as §1, §2, §3

[6] = test system: human lung cancer cells H460; experiment: MTT growth inhibition, H460 cells; type: cell-based; details: NCI-H460, 72 h after treatment, read-out: Drug concentration (IC50) at which 50% cancer cells survived
Text: as §4, §5, §6, §7, §8, §9, §10, §11, §12, §13

[7] = test system: human brain tumor cells Daoy; experiment: MTT growth inhibition, Daoy cells; type: cell-based; details: Homo sapiens, 72 h after treatment, read-out: Drug concentration (IC50) at which 50% cancer cells survived
Text: as §4, §5, §6, §7, §8, §9, §10, §11, §12, §13

[8] = test system: human cervical cancer Hela cell lines; experiment: MTT growth inhibition, Hela cells; type: cell-based; details: Homo sapiens, 72 h after treatment, read-out: Drug concentration (IC50) at which 50% cancer cells survived
Text: as §4, §5, §6, §7, §8, §9, §10, §11, §12, §13

[9] = test system: mouse melanoma cells B16; experiment: MTT growth inhibition, B16 cells; type: cell-based; details: Mus musculus, 72 h after treatment, read-out: Drug concentration (IC50) at which 50% cancer cells survived
Text: as §4, §5, §6, §7, §8, §9, §10, §11, §12, §13

[10] = test system: c-Met; experiment: Western Blotting, c-Met level; type: cell-based; details: human liver cancer cells, Lewis lung cancer cells and other cancer cell lines and tumor tissues, read-out: Effective concentration (IC50) for inhibition of c-Met
Text: (§14) Antibodies: primary antibodies of VEGFR, EGFR, c-Met, K-Ras, H-Ras, Akt, NF-κB, Cyclin D1, ER-alpha, Dvl-1, Dvl-2, Dvl-3, MMP-9, MMP2, β-catenin, Bcl-2, Bax, p53, p21, E-cadherin and Caspase3 protein, purchased from American Cell Signaling Technology Company and Santa Cruz Technology Company; and H3 acetylation, H4 acetylation and HDAC (HDAC3, HDAC4 and the like) Antibody Sample Kits, purchased from Cell Signaling Technology Company of the U.S.
(§15) (3) polyacrylamide gel electrophoresis (SDS-PAGE): an equal amount of protein lysate sample was used to separate protein, film transfer, and blocking, treated with appropriate primary antibodies and secondary antibodies in sequence, and the film was washed, then the color was developed with ECL kit, and a blot protein band was detected by exposure of an X-ray film; and a Gel-Pro Analyzer was used for quantitative analysis of gray degree, optical density value of the control group and the drug treatment group in various concentration were respectively compared with that of internal reference, the obtained ratios were respectively compared with the control group, and the protein expression level was semi-quantified.

[11] = test system: Bcl-2/Bax; experiment: Western Blotting, Bcl-2/Bax level; type: cell-based; details: human liver cancer cells, Lewis lung cancer cells and other cancer cell lines and tumor tissues, read-out: Effective concentration (IC50) for inhibition of Bcl-2/Bax
Text: as §14, §15

Structure (SMILES)	inhibition in vivo at 60 mg/kg [1] [%]	inhibition in vivo at 90 mg/kg [1] [%]	IC50 [2] [µM]	IC50 [3] [µM]	IC50 [4] [µM]	inhibition in vivo at 60 mg/kg [5] [%]	inhibition in vivo at 90 mg/kg [5] [%]	IC50 [6] [µM]	IC50 [7] [µM]	IC50 [8] [µM]	IC50 [9] [µM]	IC50 [10] [µM]	IC50 [11] [µM]
CCNC(=O)CC[C@H](N)C(=O)OCC [Compound IIb, theanine ethyl ester]	44.5	47.8	300	600	300	43.2	46.8	400 ± 10	400	500	500		
CCNC(=O)CC[C@@H](NC(=O)c1cc2cc(Cl)cc(Cl)c2oc1=O)C(=O)OCC [Compound Ig, (R)-2-(6,8-dichloro-2-oxo-2H-benzopyran-3-carboxamido)-5-ethylamino-5-oxo-pentanoic ethyl ester]	59.1	72.1	46	57	119	65.7	76.9	93	110	66	125	< 150	< 70
CCNC(=O)CC[C@@H](NC(=O)c1cc2cc(Br)cc(Br)c2oc1=O)C(=O)OCC [Compound Ih, (R)-2-(6,8-dibromo-2-oxo-2H-benzopyran-3-carboxamido)-5-ethylamino-5-oxo-pentanoic ethyl ester]	55.1	75.1	56	79	128	58.9	75.9	109	121	58	146	< 500	< 70
CCNC(=O)CC[C@@H](NC(=O)c1cc2cc(Br)ccc2oc1=O)C(=O)OCC [Compound Id, (R)-2-(6-Br-2-oxo-2H-benzopyran-3-carboxamido)-5-ethylamino-5-oxo-pentanoic acid ethyl ester]	53.1	66.7	125	125	116	56.6	66.9	101	128	75	120	< 150	< 100
CCNC(=O)CCC(NC(=O)c1cc2ccccc2oc1=O)C(=O)OCC (centres unmarked) [Compound Ib, ethyl 5-ethylamino-5-oxo-2-(2-oxo-2H-benzopyran-3-carboxamido)pentanoate]	59.1	69.1	225	150	105	52.6	63.8	113	135	53	110	< 155	< 120
CCNC(=O)CC[C@@H](NC(=O)c1cc2cc(Cl)ccc2oc1=O)C(=O)OCC [Compound Ic, (R)-2-(6-CI-2-oxo-2H-benzopyran-3-carboxamido)-5-ethylamino-5-oxo-pentanoic acid ethyl ester]	54.1	65.5	93	105	89	58.6	68.8	106 ± 50	86	350	125		< 100
CCNC(=O)CC[C@H](N)C(=O)OC [Compound IIa, theanine methyl ester]	31.1	36.1	600	350	600	39.8	41.3	500 ± 40	400	330	450		
